In ChEMBL document CHEMBL1201862, “PubChem BioAssay data set” (2004):
Active and inactive are the calls of the source. Rule as the data show it: actives have a measured IC50 and inactives only a lower limit.

Target: Envelope glycoprotein gp160 (Human immunodeficiency virus 1, UniProt Q6QLK5)
Assay: inhibitors of HIV fusion peptide binding, primary screen, biochemical, uHTS, fluorescence dequenching (AID 1986)

Chain of Envelope glycoprotein gp160 (Q6QLK5 whole entry, the tested form may be a part): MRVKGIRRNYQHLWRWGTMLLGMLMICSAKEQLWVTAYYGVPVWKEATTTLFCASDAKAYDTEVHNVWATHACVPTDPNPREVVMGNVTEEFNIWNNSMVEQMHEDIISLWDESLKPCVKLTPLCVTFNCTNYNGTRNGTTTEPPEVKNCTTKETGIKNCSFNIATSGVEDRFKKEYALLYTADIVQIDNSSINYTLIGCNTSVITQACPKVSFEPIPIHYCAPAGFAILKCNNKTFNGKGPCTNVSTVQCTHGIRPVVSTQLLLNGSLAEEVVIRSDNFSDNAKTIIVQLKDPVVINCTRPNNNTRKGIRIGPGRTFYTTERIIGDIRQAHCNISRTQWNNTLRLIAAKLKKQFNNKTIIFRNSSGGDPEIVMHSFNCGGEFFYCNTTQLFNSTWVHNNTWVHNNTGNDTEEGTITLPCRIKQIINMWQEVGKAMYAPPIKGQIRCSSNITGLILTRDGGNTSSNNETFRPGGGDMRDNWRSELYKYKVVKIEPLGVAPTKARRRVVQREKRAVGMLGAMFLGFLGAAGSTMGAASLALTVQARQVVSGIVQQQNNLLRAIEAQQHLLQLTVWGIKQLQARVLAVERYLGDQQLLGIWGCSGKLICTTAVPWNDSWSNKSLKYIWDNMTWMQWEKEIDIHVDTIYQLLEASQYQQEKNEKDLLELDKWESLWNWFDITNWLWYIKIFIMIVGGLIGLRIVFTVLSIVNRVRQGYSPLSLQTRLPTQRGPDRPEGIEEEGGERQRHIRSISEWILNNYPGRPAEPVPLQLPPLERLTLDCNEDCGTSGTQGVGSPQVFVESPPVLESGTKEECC

CCCCCOc1ccc(C2C(C(=O)c3ccc(C)o3)=C(O)C(=O)N2c2cc(C)on2)cc1 (configuration not stated)
IC50: 22.8 µM (active)

Cc1ccc(S(=O)(=O)Oc2ccc(/C=C3\C(=N)N4N=C(S(C)(=O)=O)SC4=NC3=O)cc2)cc1
IC50: 16.2 µM (active)
